Experimental data taken from ChEMBL document CHEMBL1201862, “PubChem BioAssay data set” (2004).
Activity calls are given as the source filed them.

Key:
Cytochrome P450 2C19 = Cytochrome P450 2C19 (Homo sapiens, UniProt P33261); assay: Cytochrome panel assay with activity outcomes. Panel member name: p450-cyp2c19 Compounds with AC50 equal or less than 10 uM are considered active; format: functional; details: read-out: AC50
Cytochrome P450 2D6 = Cytochrome P450 2D6 (Homo sapiens, UniProt P10635);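 note: CYP2D6 member of a cytochrome P450 panel assay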
Cytochrome P450 3A4 = Cytochrome P450 3A4 (Homo sapiens, UniProt P08684);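 note: CYP3A4 tested as one member of a cytochrome P450 panel screen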
[1] = NIH-3T3 fibroblast cytotoxicity, dose response, cytotoxicity control, cell-based, fluorescence, Alamar Blue, secondary assay (AID 2327); format: functional;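 note: NIH-3T3 mouse fibroblasts cultured with fluconazole at 8 µg/mL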
[2] = fluconazole-exposed Candida albicans growth modulators – fluorescence, retest, confirmation (AID 2467); format: functional, cell-based
[3] = biological target: T1, Serine/threonine-protein phosphatase (Candida dubliniensis (strain CD36 / CBS 7987 / NCPF 3949 / NRRLY-17841) (Yeast), UniProt B9W6M3); assay: blockers of CaCl2-induced CDRE-lacZ signaling – S. cerevisiae, luminescence, secondary, dose response (AID 2388); format: functional, cell-based;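 note: yeast reporter cells carrying a calcineurin-responsive lacZ construct stimulated with calcium chloride; luminescent beta-galactosidase reporter signal in whole cells rather than isolated phosphatase activity; potency for inhibition where a drop in reporter signal means calcineurin blockade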
T1 sequence (B9W6M3 whole entry): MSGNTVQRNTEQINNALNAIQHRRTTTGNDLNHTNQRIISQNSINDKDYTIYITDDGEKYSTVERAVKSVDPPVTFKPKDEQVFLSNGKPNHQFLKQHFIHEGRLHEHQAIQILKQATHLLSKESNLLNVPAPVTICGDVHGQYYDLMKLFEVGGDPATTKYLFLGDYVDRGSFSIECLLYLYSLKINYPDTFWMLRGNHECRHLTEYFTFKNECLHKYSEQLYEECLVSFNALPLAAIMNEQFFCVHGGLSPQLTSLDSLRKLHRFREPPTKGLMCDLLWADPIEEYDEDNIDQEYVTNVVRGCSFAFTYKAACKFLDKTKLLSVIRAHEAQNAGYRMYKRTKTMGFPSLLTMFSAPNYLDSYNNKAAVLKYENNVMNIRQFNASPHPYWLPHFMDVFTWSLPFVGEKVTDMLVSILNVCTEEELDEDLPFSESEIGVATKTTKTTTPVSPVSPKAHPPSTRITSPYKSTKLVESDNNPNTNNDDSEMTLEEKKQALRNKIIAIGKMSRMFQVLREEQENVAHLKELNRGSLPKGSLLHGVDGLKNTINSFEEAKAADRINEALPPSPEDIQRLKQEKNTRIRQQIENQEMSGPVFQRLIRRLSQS

[4] = biological target: T1, Serine/threonine-protein phosphatase; assay: Fluorescence Cell-Based Secondary Assay to Identify Inhibitors of Calcineurin. [Related pubchem assays (depositor defined):AID1979, AID2007]; format: functional
CAAX prenyl protease 2 [5] = biological target: T2, CAAX prenyl protease 2 (Homo sapiens, UniProt Q9Y256); assay: inhibition of Ras-converting CAAX protease Rce1 – biochemical, yeast membranes, quenched-peptide fluorescence, cherry-pick, dose response (AID 588849)
T2 sequence (Q9Y256 whole entry): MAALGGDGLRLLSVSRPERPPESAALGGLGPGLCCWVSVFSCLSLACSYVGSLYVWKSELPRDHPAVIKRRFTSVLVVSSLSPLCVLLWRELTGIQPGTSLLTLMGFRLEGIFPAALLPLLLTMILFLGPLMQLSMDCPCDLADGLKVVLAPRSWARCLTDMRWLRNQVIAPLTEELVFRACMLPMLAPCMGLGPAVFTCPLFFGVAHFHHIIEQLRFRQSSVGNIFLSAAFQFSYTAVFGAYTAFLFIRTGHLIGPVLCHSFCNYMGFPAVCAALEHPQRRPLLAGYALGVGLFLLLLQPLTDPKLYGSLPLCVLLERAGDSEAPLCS

[6] = biological target: ATP-dependent molecular chaperone HSP82 (Candida albicans (strain WO-1) (Yeast), UniProt C4YTQ8); assay: steroid-induced GRE reporter decrease in yeast – S. cerevisiae, luminescence, Hsp90 inhibitor project, dose response (AID 2400); format: functional, cell-based;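 note: beta-galactosidase luminescence from glucocorticoid response element reporter as proxy for Hsp90 function; inhibitor potency where signal loss means Hsp90 inhibition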
Protein skinhead-1 = biological target: T3, Protein skinhead-1 (Caenorhabditis elegans, UniProt P34707); format: functional
T3 sequence (P34707 whole entry): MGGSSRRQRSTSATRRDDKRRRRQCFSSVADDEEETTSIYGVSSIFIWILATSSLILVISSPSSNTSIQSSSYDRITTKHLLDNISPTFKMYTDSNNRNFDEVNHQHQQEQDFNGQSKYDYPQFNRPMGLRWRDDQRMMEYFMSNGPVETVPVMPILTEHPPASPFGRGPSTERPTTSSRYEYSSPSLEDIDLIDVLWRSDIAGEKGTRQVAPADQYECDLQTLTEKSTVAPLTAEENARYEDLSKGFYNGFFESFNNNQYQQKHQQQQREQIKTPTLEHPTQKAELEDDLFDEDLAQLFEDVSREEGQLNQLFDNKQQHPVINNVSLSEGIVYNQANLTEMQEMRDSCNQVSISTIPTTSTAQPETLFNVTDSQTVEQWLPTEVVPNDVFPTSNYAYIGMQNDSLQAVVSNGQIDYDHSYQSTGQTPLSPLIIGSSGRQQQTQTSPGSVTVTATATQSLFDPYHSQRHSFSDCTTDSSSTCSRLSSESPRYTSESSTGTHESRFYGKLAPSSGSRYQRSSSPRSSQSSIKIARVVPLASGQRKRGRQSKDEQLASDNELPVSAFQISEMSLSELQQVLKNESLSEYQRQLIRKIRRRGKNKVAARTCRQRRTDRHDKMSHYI

HEK293 [7] = assay: inhibition of NOD1-driven NF-kB reporter – cell-based, luminescence, uHTS, primary screen (AID 1578); format: functional; details: Homo sapiens
[8] = tested on: Streptococcus sp. 'group A'; assay: Streptococcus pyogenes SK(-)GAS viability under kanamycin – luminescence, BacTiterGlo, confirmation, counter-screen for streptokinase expression inhibitor project, dose response (AID 1900); format: functional, organism-based
HEK293 [9] = assay: cells; format: functional, cell-based; details: Homo sapiens
Streptokinase A = biological target: T4, Streptokinase A (Streptococcus pyogenes serotype M1, UniProt P10520); assay: viability-normalized secreted streptokinase activity reduction – plasminogen activation absorbance, OD405, dose response (AID 1914); format: functional, Streptococcus pyogenes M1 GAS;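 note: secreted streptokinase activity via plasminogen activation per viability signal from cell pellet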
T4 sequence (P10520 whole entry): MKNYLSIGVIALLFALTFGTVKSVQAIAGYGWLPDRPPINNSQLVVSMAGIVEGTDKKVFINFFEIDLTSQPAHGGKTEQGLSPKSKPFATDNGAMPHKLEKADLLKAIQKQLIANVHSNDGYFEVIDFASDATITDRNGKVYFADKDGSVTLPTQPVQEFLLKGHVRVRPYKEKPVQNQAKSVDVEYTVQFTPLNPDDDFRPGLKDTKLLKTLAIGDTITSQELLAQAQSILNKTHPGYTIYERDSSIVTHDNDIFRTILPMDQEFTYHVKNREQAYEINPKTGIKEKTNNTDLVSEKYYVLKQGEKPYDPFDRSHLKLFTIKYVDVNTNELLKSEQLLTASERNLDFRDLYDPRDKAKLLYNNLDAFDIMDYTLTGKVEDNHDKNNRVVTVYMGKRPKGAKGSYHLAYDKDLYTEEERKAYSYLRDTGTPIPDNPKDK

HEK293 [10] = assay: cells; format: functional, cell-based; details: Homo sapiens; remark: listed apart in the source
[11] = biological target: Nucleotide-binding oligomerization domain-containing protein 2 (Homo sapiens, UniProt Q9HC29); assay: inhibition of NOD2-driven NF-kB reporter – cell-based, luminescence, uHTS, HEK293 (AID 1566); format: functional
HEK293 [12] = assay: NOD2 signaling inhibitors in MDP-stimulated cells, cell-based, uHTS, luminescence (AID 2001); format: functional; details: Homo sapiens
HEK293 [13] = assay: cells; format: functional, cell-based; details: Homo sapiens; remark: listed apart in the source
Streptococcus = assay: GAS UMAA2166 growth inhibition – luminescence, BacTiterGlo, counter-screen for streptokinase expression inhibitor project, dose response (AID 1915); format: functional, organism-based;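 note: potency for reduction of bacterial viability or growth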
[14] = biological target: T5, Aryl hydrocarbon receptor (Homo sapiens, UniProt P35869); assay: Luminescence-based cell-based high throughput dose response assay for activators of the Aryl Hydrocarbon Receptor (AHR). [Related pubchem assays: 2796 (Primary screen (AHR activators in singlicate)), 2845 (Confirmation screen (AHR activators in triplicate)), 434939 (Counterscreen (PXR activators in triplicate)), 2804 (Summary (AHR activators))]; format: ADME
T5 sequence (P35869 whole entry): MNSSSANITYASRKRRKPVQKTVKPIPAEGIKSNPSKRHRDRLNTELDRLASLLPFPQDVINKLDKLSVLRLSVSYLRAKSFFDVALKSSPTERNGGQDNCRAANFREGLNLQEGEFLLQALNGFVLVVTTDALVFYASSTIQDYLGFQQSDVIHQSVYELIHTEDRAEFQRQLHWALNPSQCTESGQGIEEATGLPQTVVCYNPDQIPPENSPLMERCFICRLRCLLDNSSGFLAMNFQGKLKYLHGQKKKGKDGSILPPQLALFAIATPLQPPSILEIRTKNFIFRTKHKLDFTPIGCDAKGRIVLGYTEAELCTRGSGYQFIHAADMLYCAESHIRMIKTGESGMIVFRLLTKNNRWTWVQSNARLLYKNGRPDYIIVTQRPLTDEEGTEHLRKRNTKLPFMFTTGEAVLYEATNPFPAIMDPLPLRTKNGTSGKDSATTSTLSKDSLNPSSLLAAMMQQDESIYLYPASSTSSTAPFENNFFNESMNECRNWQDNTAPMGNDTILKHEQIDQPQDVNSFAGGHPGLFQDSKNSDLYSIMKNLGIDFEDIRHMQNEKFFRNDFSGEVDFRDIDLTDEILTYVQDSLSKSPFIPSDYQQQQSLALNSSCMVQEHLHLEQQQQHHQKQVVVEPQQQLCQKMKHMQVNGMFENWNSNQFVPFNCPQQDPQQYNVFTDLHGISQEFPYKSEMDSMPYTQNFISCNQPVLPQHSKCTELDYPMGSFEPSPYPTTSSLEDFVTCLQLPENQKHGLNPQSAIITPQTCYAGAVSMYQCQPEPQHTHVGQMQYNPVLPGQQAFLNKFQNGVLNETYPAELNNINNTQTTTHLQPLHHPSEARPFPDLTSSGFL

CAAX prenyl protease 2 [15] = biological target: T6, CAAX prenyl protease 2 (Saccharomyces cerevisiae S288c, UniProt Q03530); format: biochemical
T6 sequence (Q03530 whole entry): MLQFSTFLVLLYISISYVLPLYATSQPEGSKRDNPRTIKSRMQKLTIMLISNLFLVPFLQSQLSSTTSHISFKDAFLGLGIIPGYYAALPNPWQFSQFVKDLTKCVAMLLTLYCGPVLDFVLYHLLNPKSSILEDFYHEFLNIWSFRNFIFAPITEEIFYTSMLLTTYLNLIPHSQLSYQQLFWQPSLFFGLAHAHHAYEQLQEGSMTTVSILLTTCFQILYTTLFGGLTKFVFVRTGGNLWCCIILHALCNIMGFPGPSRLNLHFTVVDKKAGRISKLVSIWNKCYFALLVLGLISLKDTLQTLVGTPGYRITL

CAAX prenyl protease 1 = CAAX prenyl protease 1 (Saccharomyces cerevisiae S288c, UniProt P47154); assay: yeast CAAX protease Ste24 inhibition – biochemical, S. cerevisiae, plate reader, cherry-pick, dose response (AID 488815)
[16] = biological target: DNA repair and recombination protein RAD54-like (Homo sapiens, UniProt Q92698); assay: RAD54 Holliday junction migration blockers – biochemical, fluorescence, cherry-picked samples, dose series, confirmation (AID 651657); format: functional
[17] = restored growth of temperature-sensitive Burl-1 yeast – whole organism, S. cerevisiae, Burl-1 ts mutant, luminescence, counter-screen for SUMOylation pathway inhibitor project, dose response (AID 463199); format: functional
[18] = biological target: UDP-galactopyranose mutase (Mycobacterium tuberculosis, UniProt P9WIQ1); assay: Inhibitors of Mycobacterium tuberculosis UDP-galactopyranose mutase (UGM) enzyme Measured in Biochemical System Using Plate Reader - 2105-02_Inhibitor_Dose_CherryPick_Activity. [Related pubchem assays (depositor defined):AID504439]
UDP-galactopyranose mutase, sequence (P9WIQ1 whole entry): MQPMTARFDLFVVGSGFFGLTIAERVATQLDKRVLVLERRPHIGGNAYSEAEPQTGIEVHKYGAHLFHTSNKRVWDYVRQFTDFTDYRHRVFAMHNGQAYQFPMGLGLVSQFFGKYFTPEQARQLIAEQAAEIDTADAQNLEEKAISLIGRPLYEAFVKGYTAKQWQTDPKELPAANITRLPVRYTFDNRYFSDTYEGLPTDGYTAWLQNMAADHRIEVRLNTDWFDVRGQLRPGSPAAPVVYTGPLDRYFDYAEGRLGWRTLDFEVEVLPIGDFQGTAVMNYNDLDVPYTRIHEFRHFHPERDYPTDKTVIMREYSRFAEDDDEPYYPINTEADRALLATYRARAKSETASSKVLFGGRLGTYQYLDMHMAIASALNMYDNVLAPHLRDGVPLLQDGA

Cytochrome P450 2C19, sequence (P33261 whole entry): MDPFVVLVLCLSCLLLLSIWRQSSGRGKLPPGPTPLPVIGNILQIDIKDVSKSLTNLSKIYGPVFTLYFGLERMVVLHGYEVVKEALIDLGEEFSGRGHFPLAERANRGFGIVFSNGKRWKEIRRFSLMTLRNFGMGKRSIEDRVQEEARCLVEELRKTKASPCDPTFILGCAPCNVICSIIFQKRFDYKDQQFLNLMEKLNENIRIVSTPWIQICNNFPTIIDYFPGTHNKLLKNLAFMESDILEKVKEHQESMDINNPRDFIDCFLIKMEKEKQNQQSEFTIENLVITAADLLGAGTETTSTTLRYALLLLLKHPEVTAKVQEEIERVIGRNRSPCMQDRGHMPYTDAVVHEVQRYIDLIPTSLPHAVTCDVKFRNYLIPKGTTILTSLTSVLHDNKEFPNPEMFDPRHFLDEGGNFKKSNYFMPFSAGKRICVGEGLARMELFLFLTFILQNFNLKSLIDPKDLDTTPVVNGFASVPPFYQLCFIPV
Cytochrome P450 2D6, sequence (P10635 whole entry): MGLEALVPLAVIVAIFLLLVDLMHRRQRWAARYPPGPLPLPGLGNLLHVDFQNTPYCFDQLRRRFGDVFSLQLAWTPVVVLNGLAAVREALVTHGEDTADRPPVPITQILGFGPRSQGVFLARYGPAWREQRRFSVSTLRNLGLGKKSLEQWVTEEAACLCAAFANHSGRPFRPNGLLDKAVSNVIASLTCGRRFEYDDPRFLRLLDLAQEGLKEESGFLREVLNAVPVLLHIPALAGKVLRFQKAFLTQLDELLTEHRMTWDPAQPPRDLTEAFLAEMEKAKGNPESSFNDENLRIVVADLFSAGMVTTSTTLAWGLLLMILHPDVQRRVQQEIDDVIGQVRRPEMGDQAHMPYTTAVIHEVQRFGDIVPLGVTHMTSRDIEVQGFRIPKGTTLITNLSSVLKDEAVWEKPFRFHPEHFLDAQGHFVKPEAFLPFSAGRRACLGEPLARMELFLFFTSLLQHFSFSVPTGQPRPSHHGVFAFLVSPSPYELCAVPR
Nucleotide-binding oligomerization domain-containing protein 2, sequence (Q9HC29 whole entry, the tested form may be a part): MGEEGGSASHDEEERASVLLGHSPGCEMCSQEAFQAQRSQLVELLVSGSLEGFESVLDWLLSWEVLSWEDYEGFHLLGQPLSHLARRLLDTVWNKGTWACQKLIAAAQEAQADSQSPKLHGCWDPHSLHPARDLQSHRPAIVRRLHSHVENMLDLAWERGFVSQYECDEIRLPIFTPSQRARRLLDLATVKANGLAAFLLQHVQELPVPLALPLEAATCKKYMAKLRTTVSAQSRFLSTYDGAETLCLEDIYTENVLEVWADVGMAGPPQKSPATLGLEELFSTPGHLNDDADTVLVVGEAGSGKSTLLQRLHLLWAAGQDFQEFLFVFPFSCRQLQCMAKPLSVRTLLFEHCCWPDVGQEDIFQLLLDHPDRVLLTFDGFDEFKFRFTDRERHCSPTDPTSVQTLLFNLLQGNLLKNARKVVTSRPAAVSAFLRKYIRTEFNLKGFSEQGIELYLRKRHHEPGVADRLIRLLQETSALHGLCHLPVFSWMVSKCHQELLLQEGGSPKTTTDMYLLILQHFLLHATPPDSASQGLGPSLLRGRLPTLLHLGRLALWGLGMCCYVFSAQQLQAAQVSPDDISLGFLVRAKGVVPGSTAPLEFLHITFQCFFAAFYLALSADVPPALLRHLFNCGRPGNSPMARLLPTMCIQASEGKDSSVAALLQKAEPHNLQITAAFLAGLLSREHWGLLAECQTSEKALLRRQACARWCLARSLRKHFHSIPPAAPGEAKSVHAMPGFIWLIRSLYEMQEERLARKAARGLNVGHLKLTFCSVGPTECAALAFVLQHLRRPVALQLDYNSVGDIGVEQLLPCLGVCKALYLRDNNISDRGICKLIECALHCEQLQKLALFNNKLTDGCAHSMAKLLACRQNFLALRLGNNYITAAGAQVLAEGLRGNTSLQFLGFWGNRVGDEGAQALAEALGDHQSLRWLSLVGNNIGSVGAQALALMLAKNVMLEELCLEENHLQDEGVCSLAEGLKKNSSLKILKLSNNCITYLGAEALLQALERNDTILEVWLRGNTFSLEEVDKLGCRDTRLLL
ATP-dependent molecular chaperone HSP82, sequence (C4YTQ8 whole entry): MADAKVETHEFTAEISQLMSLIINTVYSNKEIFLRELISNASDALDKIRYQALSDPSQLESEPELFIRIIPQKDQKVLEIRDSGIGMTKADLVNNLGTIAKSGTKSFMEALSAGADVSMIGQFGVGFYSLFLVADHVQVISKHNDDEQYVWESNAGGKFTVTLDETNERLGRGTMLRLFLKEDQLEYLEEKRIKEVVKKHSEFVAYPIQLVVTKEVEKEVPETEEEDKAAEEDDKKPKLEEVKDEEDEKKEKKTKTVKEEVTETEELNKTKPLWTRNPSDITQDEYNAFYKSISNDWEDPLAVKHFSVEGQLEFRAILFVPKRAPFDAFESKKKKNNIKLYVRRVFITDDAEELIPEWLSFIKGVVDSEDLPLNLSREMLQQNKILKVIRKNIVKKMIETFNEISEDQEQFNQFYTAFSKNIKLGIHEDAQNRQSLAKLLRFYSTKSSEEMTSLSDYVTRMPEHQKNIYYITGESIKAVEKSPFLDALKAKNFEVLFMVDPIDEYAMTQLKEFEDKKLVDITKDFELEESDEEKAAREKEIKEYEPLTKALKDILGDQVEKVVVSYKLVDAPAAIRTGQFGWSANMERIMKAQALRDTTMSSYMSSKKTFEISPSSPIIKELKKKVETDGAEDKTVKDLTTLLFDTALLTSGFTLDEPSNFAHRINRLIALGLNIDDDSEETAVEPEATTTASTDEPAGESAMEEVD
CAAX prenyl protease 1, sequence (P47154 whole entry): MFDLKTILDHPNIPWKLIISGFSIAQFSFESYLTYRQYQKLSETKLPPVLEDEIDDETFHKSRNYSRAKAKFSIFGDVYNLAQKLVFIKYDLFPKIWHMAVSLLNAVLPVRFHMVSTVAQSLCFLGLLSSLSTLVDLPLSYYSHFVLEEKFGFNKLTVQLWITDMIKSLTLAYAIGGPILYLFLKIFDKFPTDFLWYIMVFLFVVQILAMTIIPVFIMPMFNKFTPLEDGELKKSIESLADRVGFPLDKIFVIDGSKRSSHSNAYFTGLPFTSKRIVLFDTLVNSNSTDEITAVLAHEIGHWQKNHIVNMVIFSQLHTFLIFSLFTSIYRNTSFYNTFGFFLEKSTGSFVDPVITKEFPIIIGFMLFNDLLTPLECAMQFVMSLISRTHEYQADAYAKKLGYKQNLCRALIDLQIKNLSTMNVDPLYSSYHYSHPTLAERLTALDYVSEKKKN
DNA repair and recombination protein RAD54-like, sequence (Q92698 whole entry): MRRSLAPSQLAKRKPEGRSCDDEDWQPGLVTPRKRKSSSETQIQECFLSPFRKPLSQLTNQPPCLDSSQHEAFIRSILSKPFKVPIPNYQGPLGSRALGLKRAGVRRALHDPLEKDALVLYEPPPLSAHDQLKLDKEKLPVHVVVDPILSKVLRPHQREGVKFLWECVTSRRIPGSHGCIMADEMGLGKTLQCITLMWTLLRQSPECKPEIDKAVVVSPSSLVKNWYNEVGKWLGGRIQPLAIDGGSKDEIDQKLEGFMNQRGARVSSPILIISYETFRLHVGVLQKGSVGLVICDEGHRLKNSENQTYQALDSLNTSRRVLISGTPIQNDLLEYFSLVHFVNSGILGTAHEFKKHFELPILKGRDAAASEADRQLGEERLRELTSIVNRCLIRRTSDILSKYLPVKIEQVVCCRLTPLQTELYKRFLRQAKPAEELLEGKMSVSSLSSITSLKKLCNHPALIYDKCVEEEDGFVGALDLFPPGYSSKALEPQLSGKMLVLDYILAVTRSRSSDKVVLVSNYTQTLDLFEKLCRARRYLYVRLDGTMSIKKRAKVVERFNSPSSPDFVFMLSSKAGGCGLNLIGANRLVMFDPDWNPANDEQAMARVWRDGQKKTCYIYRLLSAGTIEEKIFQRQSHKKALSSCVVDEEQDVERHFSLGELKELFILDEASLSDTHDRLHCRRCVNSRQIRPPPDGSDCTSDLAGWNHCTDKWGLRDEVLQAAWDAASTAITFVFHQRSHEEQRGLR
Cytochrome P450 3A4, sequence (P08684 whole entry): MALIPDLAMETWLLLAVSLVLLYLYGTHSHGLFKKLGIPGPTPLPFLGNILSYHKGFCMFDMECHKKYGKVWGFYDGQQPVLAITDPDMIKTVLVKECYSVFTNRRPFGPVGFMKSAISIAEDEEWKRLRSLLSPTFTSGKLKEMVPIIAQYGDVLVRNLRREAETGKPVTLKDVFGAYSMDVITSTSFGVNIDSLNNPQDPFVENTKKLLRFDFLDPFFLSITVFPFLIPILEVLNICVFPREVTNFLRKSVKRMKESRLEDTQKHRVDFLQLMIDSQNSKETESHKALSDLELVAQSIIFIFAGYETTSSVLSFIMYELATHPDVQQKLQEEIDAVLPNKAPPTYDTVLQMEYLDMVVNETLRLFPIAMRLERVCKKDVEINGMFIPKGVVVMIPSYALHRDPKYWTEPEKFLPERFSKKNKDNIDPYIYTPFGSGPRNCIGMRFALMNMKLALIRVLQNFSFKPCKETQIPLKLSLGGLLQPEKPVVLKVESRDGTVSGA

What does the source list for `CCc1ccc(C(CC(=O)c2ccc(Cl)cc2)C(=O)O)cc1` (stereo unspecified)?
AC50 (Cytochrome P450 2C19): 0.00562 µM (inconclusive); AC50 (Cytochrome P450 2D6): inconclusive; AC50 (Cytochrome P450 3A4): inconclusive

With `O=C(Nc1sc2c(c1C(=O)c1ccc(Cl)cc1)CCCC2)c1cccnc1` as the compound, how does the EC50 [1] read?
The EC50 was > 160 µM (inactive).

And the EC50 [2]?
Its EC50 is 0.18 µM (active).

What about the EC50 [3] of the same compound?
The EC50 was > 180 µM (inactive).

What about the EC50 [4] of the same compound?
The EC50 was 27.6 µM (inconclusive).

And the AC50 (CAAX prenyl protease 2 [5])?
Its AC50 is 24.3 µM (active).

What about the EC50 [6] of the same compound?
Its EC50 is 28.2 µM (active).

What about the IC50 (Protein skinhead-1) of the same compound?
Its IC50 is > 100 µM (inactive).

With `CCCCCCc1cc2cc(C(=O)OCC)c(=O)oc2cc1O` as the compound, how does the EC50 (HEK293 [7]) read?
Its EC50 is 5.81 µM (active).

And the EC50 [8]?
Its EC50 is 10.8 µM (active).

And the IC50 (HEK293 [9])?
The IC50 was 7.71 µM (active).

And the EC50 (Streptokinase A)?
Its EC50 is 12.8 µM (active).

And the IC50 (HEK293 [10])?
Its IC50 is 15.8 µM (active).

What about the EC50 [11] of the same compound?
The EC50 was 12.6 µM (active).

And the IC50 (HEK293 [12])?
Its IC50 is 6.52 µM (inactive).

And the IC50 (HEK293 [13])?
Its IC50 is > 20 µM (inactive).

What about the EC50 (Streptococcus) of the same compound?
The EC50 was > 150 µM (not active).

Which EC50 [14] does the source give for `CN1CCN(CCCNC(=O)c2cc3c(-c4ccc(Cl)cc4)nn(C)c3s2)CC1` here?
The EC50 was 0.483 µM (active).

And the AC50 (CAAX prenyl protease 2 [15])?
The AC50 was 7.05 µM (active).

What about the AC50 (CAAX prenyl protease 1) of the same compound?
The AC50 was 6.07 µM (active).

And the AC50 (CAAX prenyl protease 2 [5])?
Its AC50 is 15.8 µM (active).

And the AC50 [16]?
Its AC50 is 33.6 µM (active).

With `OCCc1c[nH]c2cc(F)ccc12` as the compound, how does the AC50 [17] read?
The AC50 was 73.3 µM (active).

Which AC50 [18] does the source give for `Cc1cc(C)c(S(=O)(=O)Nc2ccc(C(=O)O)cc2)cc1S(=O)(=O)Nc1ccc(C(=O)O)cc1` here?
Its AC50 is 423 µM (active).
